Data published in article PMC10434152, “Effectors of the Type VI Secretion System Have the Potential to Be Modified into Antimicrobial Peptides” (Microbiology Spectrum, 2023).
Read-outs that look alike come from different tables or passages of the source. Residues, ends and D or L forms follow the SMILES beside them.

Columns and labels:
[1] = system: E. coli ATCC 25922; test: MIC and MBC against laboratory strain E. coli ATCC 25922; assay type: cell-based, Escherichia coli; conditions: for MBC: 10 μL from MIC put into Mueller-Hinton agar medium, 24 h; for MIC: 37°C, 18 to 20 h
Procedure: (§1) MIC was measured according to Luna et al. ([25]) as described previously. Briefly, 100 μL of RPMI 1640 medium containing drugs at various concentrations was cultured with 100 μL of bacteria at 1 × 10^6 CFU/mL in 96-well plates at 37°C for 18 to 20 h. Wells containing 100 μL of bacteria at 1 × 10^6 CFU/mL and 100 μL medium were used as positive controls. Wells containing 100 μL drug and 100 μL medium were used as drug-negative controls, and wells containing 200 μL medium were used as negative controls.
(§2) The MBC, in which a combination of 10 μL from MIC was put into Mueller-Hinton agar medium and incubated for 24 h, was the first one in which […].

[2] = system: S. aureus USA200; test: Checkerboard combination with ciprofloxacin; assay type: cell-based; conditions: in combination with ciprofloxacin
[3] = system: Streptococcus SC19; test: MIC and MBC against MDR bacteria; assay type: cell-based; conditions: for MBC: Mueller-Hinton agar, 24 h; for MIC: RPMI 1640, 37°C, 18 to 20 h
Procedure: as §1, §2

[4] = system: S. aureus ATCC 43300; test: MIC and MBC against MDR bacteria; assay type: cell-based; conditions: for MBC: Mueller-Hinton agar, 24 h; for MIC: RPMI 1640, 37°C, 18 to 20 h
Procedure: as §1, §2

[5] = system: S. aureus USA300; test: MIC and MBC against MDR bacteria; assay type: cell-based; conditions: for MBC: Mueller-Hinton agar, 24 h; for MIC: RPMI 1640, 37°C, 18 to 20 h
Procedure: as §1, §2

[6] = system: S. aureus 1802043; test: MIC and MBC against MDR bacteria; assay type: cell-based; conditions: for MBC: Mueller-Hinton agar, 24 h; for MIC: RPMI 1640, 37°C, 18 to 20 h
Procedure: as §1, §2

[7] = system: Bacillus subtilis NCD-2; test: MIC and MBC against MDR bacteria; assay type: cell-based; conditions: for MBC: Mueller-Hinton agar, 24 h; for MIC: RPMI 1640, 37°C, 18 to 20 h
Procedure: as §1, §2

[8] = system: S. aureus USA200; test: MIC and MBC against MDR bacteria; assay type: cell-based; conditions: for MBC: Mueller-Hinton agar, 24 h
Procedure: as §1, §2

[9] = system: ExPEC RS218; test: MIC and MBC against MDR bacteria; assay type: cell-based, Escherichia coli; conditions: for MBC: Mueller-Hinton agar, 24 h; for MIC: RPMI 1640, 37°C, 18 to 20 h
Procedure: as §1, §2

[10] = system: ExPEC PCN033; test: MIC and MBC against MDR bacteria; assay type: cell-based, Escherichia coli; conditions: for MBC: Mueller-Hinton agar, 24 h; for MIC: RPMI 1640, 37°C, 18 to 20 h
Procedure: as §1, §2

[11] = system: S. aureus ATCC 25923; test: MIC and MBC against laboratory strain S. aureus ATCC 25923; assay type: cell-based, Staphylococcus aureus; conditions: for MBC: 10 μL from MIC put into Mueller-Hinton agar medium, 24 h; for MIC: 37°C, 18 to 20 h
Procedure: as §1, §2

[12] = system: S. aureus USA200; test: S. aureus-infected mouse model, survival; assay type: in vivo; conditions: BALB/c mice, n = 10, 1 × 10^7 bacteria i.p.; 20 mg/kg i.p. 6 h after infection; survival after 7 days
Procedure: To determine the drug protection rate fraction, S. aureus USA200 that had been cultured overnight was cultured in LB broth to an OD600 of 0.5, washed three times, and resuspended in PBS. Forty female BALB/c mice (18 ± 2 g each) were divided randomly into four groups. All four groups (n = 10) of mice were injected intraperitoneally with 1 × 10^7 bacteria. Six hours after infection, the animals in the four groups received 20 mg/kg Tsap-1, 20 mg/kg ciprofloxacin, 10 mg/kg Tsap-1, and 10 mg/kg ciprofloxacin or an equal amount of PBS by intraperitoneal injection. The survival rate of the mice was recorded after 7 days.

[13] = system: S. aureus USA200; test: Mouse tissue load experiment; assay type: in vivo; conditions: BALB/c mice, five per group, 20 mg/kg i.p., tissues (liver, spleen, lung, kidney) harvested 12 h later, CFU
Procedure: For the mouse tissue load experiment, the bacteria were manipulated as described previously. Twenty female BALB/c mice (18 ± 2 g each) were divided randomly into four groups of five mice each. The animals in the four groups were injected intraperitoneally with 20 mg/kg Tsap-1 AMP, 20 mg/kg ciprofloxacin, 10 mg/kg Tsap-1, and 10 mg/kg ciprofloxacin or an equal amount of PBS. Twelve hours later, the mice were anesthetized with ether and perfused with PBS, and their livers, spleens, lungs, and kidneys were harvested. The tissues were then homogenized using a tissue grinder. Then, 10× serial dilutions of the homogenates were prepared and plated onto LB plates, and the CFUs were counted.

[14] = system: Sheep red blood cells; test: Hemolytic activity; assay type: cell-based; conditions: 4 μg/mL; 10% SRBCs, 37°C, 6 h, absorbance 540 nm, triplicate
Procedure: Sheep red blood cells (SRBCs) were used to detect hemolytic activity according to a previous method. Briefly, fresh SRBCs were washed with PBS, and a suspension of 10% SRBCs was mixed with solutions of Tsap or melittin at various concentrations. After incubation at 37°C for 6 h, the cells were removed by centrifugation at 800 × g for 10 min, and the absorbance of the supernatant at 540 nm was measured. Culture supernatant from cells that had been stimulated with 1% Triton X-100 was used as a positive control, and culture supernatant from cells that had been incubated with PBS was used as a negative control. Each measurement was taken in triplicate.

[15] = RPMI 1640 medium, 1 × 10^6 CFU/mL, 96-well plates
[16] = RPMI supplemented with Glycine (0.5 mM)
[17] = RPMI supplemented with L-Arginine (0.5 mM)
[18] = RPMI supplemented with L-Histidine (0.5 mM)
[19] = RPMI supplemented with L-Tryptophan (0.125 mM)
[20] = RPMI supplemented with Leucine (1 mM)
[21] = RPMI supplemented with nonessential amino acid solution
[22] = S. aureus USA200, RPMI 1640, 37°C, 18 to 20 h

Row | Molecule | MBC [1] [µg/mL] | MIC [1, 15] [µg/mL] | MIC [1, 16] [µg/mL] | MIC [1, 17] [µg/mL] | MIC [1, 18] [µg/mL] | MIC [1, 19] [µg/mL] | MIC [1, 20] [µg/mL] | MIC [1, 21] [µg/mL] | fractional inhibitory concentration index (FICI) [2] | MBC [3] [µg/mL] | MIC [3] [µg/mL] | MBC [4] [µg/mL] | MIC [4] [µg/mL] | MBC [5] [µg/mL] | MIC [5] [µg/mL] | MBC [6] [µg/mL] | MIC [6] [µg/mL] | MBC [7] [µg/mL] | MIC [7] [µg/mL] | MBC ([8]; S. aureus USA200) [µg/mL] | further results
1 | CC[C@H](C)[C@H](NC(=O)[C@H](CCSC)NC(=O)[C@H](CCCCN)NC(=O)[C@H](CCCCN)NC(=O)[C@H](CC(C)C)NC(=O)[C@H](CCCCN)NC(=O)[C@H](CCCCN)NC(=O)[C@@H](N)Cc1c[nH]c2ccccc12)C(=O)N[C@@H](CCCCN)C(=O)N[C@@H](CCCCN)C(=O)O [Tsap1] (H-WKKLKKMIKK-OH) | 4 | 32 | 16 | 16 | 32 | 32 | 32 | 16 | 0.5 | 4 | 16 | 4 | 16 | 2 | 16 | 2 | 16 | 4 | 16 | 8 | MIC [8, 22]: 64 µg/mL; MBC [9]: 32 µg/mL; MIC [9]: 64 µg/mL; MBC [10]: 32 µg/mL; MIC [10]: 64 µg/mL; MBC [11]: 4 µg/mL; MIC [11, 15]: 16 µg/mL; MIC [11, 16]: 16 µg/mL; MIC [11, 17]: 16 µg/mL; MIC [11, 18]: 16 µg/mL; MIC [11, 19]: 16 µg/mL; MIC [11, 20]: 16 µg/mL; MIC [11, 21]: 16 µg/mL
2 | O=C(O)c1cn(C2CC2)c2cc(N3CCNCC3)c(F)cc2c1=O [ciprofloxacin] | – | – | – | – | – | – | – | – | – | – | – | – | – | – | – | – | – | – | – | – | protection [12]: 60%; MIC ([8]; Staphylococcus aureus, S. aureus USA200, stated in text, read-out: MIC): 16 µg/mL; reduction of bacterial loads in all tissues compared with untreated group [13]: about 32 times
3 | CC[C@H](C)[C@H](NC(=O)[C@H](CCCCN)NC(=O)[C@H](CCSC)NC(=O)[C@@H](NC(=O)[C@H](CCSC)NC(=O)[C@H](CCCCN)NC(=O)[C@H](CCCCN)NC(=O)[C@H](CC(C)C)NC(=O)[C@H](C)NC(=O)[C@H](CCCCN)NC(=O)[C@@H](N)Cc1c[nH]c2ccccc12)[C@@H](C)CC)C(=O)O [Tsap3] (H-WKALKKMIMKI-OH) | 4 | 32 | 16 | 16 | 32 | 32 | 32 | 16 | 1.25 | 4 | 16 | 4 | 16 | 2 | 16 | 2 | 16 | 4 | 16 | 16 | MIC [8, 22]: 64 µg/mL; MBC [9]: 32 µg/mL; MIC [9]: 64 µg/mL; MBC [10]: 32 µg/mL; MIC [10]: 64 µg/mL; MBC [11]: 8 µg/mL; MIC [11, 15]: 16 µg/mL; MIC [11, 16]: 16 µg/mL; MIC [11, 17]: 16 µg/mL; MIC [11, 18]: 16 µg/mL; MIC [11, 19]: 16 µg/mL; MIC [11, 20]: 16 µg/mL; MIC [11, 21]: 16 µg/mL
4 | melittin | – | – | – | – | – | – | – | – | – | – | – | – | – | – | – | – | – | – | – | – | hemolysis activity [14]: complete hemolysis activity
5 | CC[C@H](C)[C@H](NC(=O)[C@H](CCSC)NC(=O)[C@H](CCCCN)NC(=O)[C@H](CCCCN)NC(=O)[C@H](CC(C)C)NC(=O)[C@H](C)NC(=O)[C@H](CCCCN)NC(=O)[C@@H](N)Cc1c[nH]c2ccccc12)C(=O)N[C@@H](CCSC)C(=O)N[C@@H](CCCCN)C(=O)N[C@H](C(=O)O)[C@@H](C)O [Tsap2] (H-WKALKKMIMKT-OH) | 32 | 128 | 64 | 64 | 128 | 128 | 128 | 64 | 1.125 | 8 | 16 | 8 | 16 | 8 | 16 | 8 | 16 | 8 | 16 | 64 | MIC [8, 22]: 512 µg/mL; MBC [9]: 64 µg/mL; MIC [9]: 256 µg/mL; MBC [10]: 64 µg/mL; MIC [10]: 256 µg/mL; MBC [11]: 16 µg/mL; MIC [11, 15]: 64 µg/mL; MIC [11, 16]: 64 µg/mL; MIC [11, 17]: 16 µg/mL; MIC [11, 18]: 64 µg/mL; MIC [11, 19]: 64 µg/mL; MIC [11, 20]: 64 µg/mL; MIC [11, 21]: 64 µg/mL
